This is an account of results in publication PMC11500415, “Chemical inhibition of stomatal differentiation by perturbation of the master-regulatory bHLH heterodimer via an ACT-Like domain” (Nature Communications, 2024).

The data set deals with Arabidopsis wild-type (WT) seedlings. Briefly: Stomatal development bioassay, seedlings in liquid culture. Particulars: for effect on stomatal development (in words): WT seedlings; for Number of stomata per 1 mm2 of cotyledon abaxial epidermis: single seedlings n=8 (Fig. 2c); for reduction of total number of stomata and meristemoids / decrease of the number of stomata from mock / increase of the number of meristemoids from mock: WT (Fig. 1e); for meristemoid density, mean / stomata density, mean / total (stomata+meristemoid) density, mean: mean of n=8 (Fig. 1e). Type of data set: in vivo. The protocol: Arabidopsis accession Columbia (Col-0) was used as wild-type. […] Their genotype and transcript reduction were confirmed. The presence of transgenes/mutant alleles were confirmed by genotyping. For liquid culture with Stomidazolone (AYSJ929, compound 3), the analogs (AYSJ1059 (compound 5) and AYSJ1061 (compound 6)), degraded compound lzx103 (compound 4), and SIM3* (compound 7), all compounds were dissolved in dimethyl sulfoxide (DMSO, Molecular biology grade, Fujifilm Wako, Japan 046-21981), Col-0 seeds were sown in 96-well plates (TL5003; True Line) containing 95 μL of 1/2 MS media containing 0.5% sucrose with rotary shaking at 140 rpm under continuous light at 22 °C. Five μL of compounds were dissolved in DMSO at 10 mM and diluted with liquid 1/2 MS media to 1 mM and added on 1-day-old seedlings (final concentration, 50 μM). Seedlings were incubated for 8 days, and at day 9 seedling abaxial cotyledons were observed through confocal microscopy. For liquid culture of scrm-D_S343 and scrm-D_S423, 1/2 MS liquid media without sucrose was used. For the solid culture, 0, 20, 50 or 100 μM Stomidazolone were solidified with low-melting agarose (5805S, PrimeGelTM Agarose LMT 1-20 K, TAKARA Bio). Briefly, 1/2 MS salt, 0.5% sucrose, and 0.8% low melting agarose were mixed in water and autoclaved. After cooling the medium at around 30 °C, Stomidazolone (500x, dissolved in DMSO) was added and poured into 90 mm petri dishes (Asnol Petri Dish JP φ90 x 15 mm, 3-1491-01, AS ONE). Col-0 seeds were sown on Stomidazolone-containing 1/2 MS agarose media and grown under continuous light for 9 days.
For confocal microscopy, cell peripheries of seedlings were visualized with propidium iodide (Sigma, P4170). Images were acquired using LSM800 or LSM700 (Zeiss) using a 20x lens. The GFP, YFP reporter and PI signals were detected with excitation at 488 nm and an emission filter of 410 to 546 nm, at 488 nm and an emission filter of 410 to 546 nm, and with excitation at 561 nm and 582–617 nm emission range, respectively. Raw data were collected with 1024 × 1024 pixel images. For qualitative image presentation, Adobe Photoshop CC was used to trim and uniformly adjust the contrast/brightness.
For quantitative analysis of the abaxial leaf epidermis, confocal images were taken on the days after germination as indicated in the Figure legends. Preparation of images was done as described previously[32],[70]. For counting epidermal cell types, stomatal density, stomatal precursor cells (meristemoids), total stomata-lineage cells (stomata and meristemoids) were calculated by counting cell types in an area of 0.4 mm^2 (0.63 mm × 0.63 mm) and plotted as per mm^2. A series of Z-stack confocal images was obtained to obtain images covering the epidermis and capturing GFP/YFP signal from the reporter lines. The area and the number of epidermal cells were quantified by using FIJI-ImageJ. Statistical analyses were performed using R ver. 4.0.2. Sample sizes (n) are indicated and defined in each legend. For the multiple sample comparison, 1-way ANOVA was performed followed by a post hoc Tukey HSD test. For the two-sample comparison, Student’s T-test was performed. Graphs were generated using R ggplot2 package. For all boxplots, each box represents IQR (interquartile range), in which top, middle line, and bottom indicating 75, 50, and 25 percentiles, respectively, and the bar representing maximum to minimal values. Each magenta dot represents jittered individual data point. The datapoints that go beyond the bar are outliers, which are indicated as black dots. If the data point is greater than Q3 + 1.5*IQR (above the third quartile is greater than 1.5 times of the interquartile range) or less than Q1 − 1.5*IQR, that data point is classified as outlier. The color of Boxplot graph was based on ColorBrewer.org. The value of n, the number of each experiment or samples, the means of error bars, and how statistical significance was defined are indicated in a relevant figure legend. […]

Setting [1] is: 50 μM, WT, single seedlings n=8 (Fig. 4b).
The mark [2] stands for this setting: 50 μM, cotyledon abaxial epidermis, individual seedlings.

“And” between values parts separate entries of the source, which are not always exact repeats. Equal entries are not always repeated.

With `Cc1ccc(C2(NS(=O)(=O)c3ccccc3)N=C(c3ccccc3)C(=O)N2S(=O)(=O)c2ccccc2)cc1` (stereo not shown) [AYSJ1059], for the setting “50 μM, liquid culture”, the “effect on stomatal development (in words)” value is “did not affect the number of stomata”. The “Number of stomata per 1 mm2 of cotyledon abaxial epidermis” value (50 μM, WT, 9 dag) is 202 per 1 mm2 and 209 per 1 mm2 and 187 per 1 mm2 and 245 per 1 mm2 and 192 per 1 mm2 and 182 per 1 mm2 and 199 per 1 mm2 and 175 per 1 mm2.

Regarding `O=C1C(c2ccccc2)=NC(NS(=O)(=O)c2ccccc2)(c2ccc(Br)cc2)N1S(=O)(=O)c1ccccc1` (stereo not shown) [AYSJ1061], the “effect on stomatal development (in words)” value (50 μM, liquid culture) is recorded as “did not affect the number of stomata”. Further, where the note is “50 μM, WT, 9 dag”, the “Number of stomata per 1 mm2 of cotyledon abaxial epidermis” value is 160 per 1 mm2 and 190 per 1 mm2 and 148 per 1 mm2 and 192 per 1 mm2 and 173 per 1 mm2 and 255 per 1 mm2 and 236 per 1 mm2.

With `O=C1C(c2ccccc2)=NC(NS(=O)(=O)c2ccccc2)(c2ccccc2)N1S(=O)(=O)c1ccccc1` (stereo not shown) [Stomidazolone], the “reduction of total number of stomata and meristemoids” value runs as follows: (20 μM) 14.46%; (50 μM) 25.03%. Further, the “Total (stomata+meristemoid) density” value was 156 per mm^2 and 173 per mm^2 and 163 per mm^2 and 168 per mm^2 and 107 per mm^2 and 154 per mm^2 and 144 per mm^2 and 124 per mm^2 (20 uM, WT cotyledon abaxial epidermis, 9 dag, single seedlings n=8 (Fig. 1e)); 166 per mm^2 and 149 per mm^2 and 124 per mm^2 and 132 per mm^2 and 146 per mm^2 and 100 per mm^2 and 115 per mm^2 and 110 per mm^2 (50 uM, WT, 9 dag, single seedlings n=8 (Fig. 1e)); 104 per mm2 and 136 per mm2 and 119 per mm2 and 102 per mm2 and 87 per mm2 and 124 per mm2 and 168 per mm2 and 158 per mm2 under setting [1]; 120 per mm^2 and 85 per mm^2 and 71 per mm^2 and 112 per mm^2 and 95 per mm^2 and 122 per mm^2 (100 uM, WT, 9 dag, single seedlings n=8 (Fig. 1e)). Also, the Stomata density is, setting by setting: (20 uM, WT, 9 dag, single seedlings n=8 (Fig. 1e)) 115 per mm^2 and 141 per mm^2 and 144 per mm^2 and 132 per mm^2 and 88 per mm^2 and 127 per mm^2; under setting [1], 90 per mm2 and 117 per mm2 and 102 per mm2 and 75 per mm2 and 107 per mm2 and 148 per mm2; under setting [2], 214 per mm2 and 241 per mm2 and 216 per mm2 and 228 per mm2 and 194 per mm2 and 250 per mm2 and 182 per mm2 and 207 per mm2. In addition, the “meristemoid density, mean” value is, setting by setting: (20 uM, WT, mock mean 7.875) 24.875 per mm^2; (50 uM, WT) 63.125 per mm^2; (100 uM, WT) 51 per mm^2. The “stomata density, mean” value runs as follows: (20 uM, WT, mock mean 165.75) 124.25 per mm^2; (50 uM, WT) 67.125 per mm^2; (100 uM, WT) 50.5 per mm^2. Moreover, the “total (stomata+meristemoid) density, mean” value turned out to be 148.625 per mm^2 (20 uM, WT, mock mean 173.75); 130.25 per mm^2 (50 uM, WT); 101.25 per mm^2 (100 uM, WT). Further, the “decrease of the number of stomata from mock” value by setting is: (50 μM) 59.50%; (100 μM) 69.53%. Besides, the “increase of the number of meristemoids from mock” value was 801.5% (50 μM) and 647.6% (100 μM). Also, under “50 μM, WT, 9 dag”, the “Number of stomata per 1 mm2 of cotyledon abaxial epidermis” value was 70 per 1 mm2 and 109 per 1 mm2 and 90 per 1 mm2 and 124 per 1 mm2 and 129 per 1 mm2 and 112 per 1 mm2 and 117 per 1 mm2. Further, the Meristemoid density runs as follows: (50 μM, WT, single seedlings n=8 (Fig. 4b, replotted 4k)) 15 per mm2 and 19 per mm2 and 17 per mm2 and 12 per mm2 and 10 per mm2; under setting [2], 0 per mm2 and 2 per mm2 and 10 per mm2 and 5 per mm2 and 7 per mm2. Further, under setting [2], the Total cell density is 214 per mm2 and 243 per mm2 and 226 per mm2 and 233 per mm2 and 199 per mm2 and 253 per mm2 and 190 per mm2 and 209 per mm2. Also, where the note is “liquid culture, even at 100 μM (Fig. 1f)”, the “effect on overall seedling growth” value is given as “does not affect”.
